Laboratory results reported in PubChem BioAssay AID248 (DTP/NCI, 2004).
Inconclusive results and toxic doses are left out. Rule as the data show it: active = T/C of 150% or more; inactive = T/C below 125%.

Tested on: L1210 leukemia ip in BDF1 mice, survival T/C
Experiment: NCI In Vivo Anticancer Drug Screen. Data for tumor model L1210 Leukemia (intraperitoneal) in B6D2F1 (BDF1) mice
Settings: endpoint: mean survival time, higher = longer survival
Summary of the method: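 Mice bearing the transplanted tumor received compound or vehicle. Survival of the treated group was divided by that of the vehicle-treated control group to give the ratio.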

[1] = dose: 100.0 mg/kg/injection, schedule: Q04DX003 (ip), vehicle: Klucel (hydroxypropylcellulose) (HPC)
[2] = dose: 200.0 mg/kg/injection, schedule: Q04DX003 (ip), vehicle: Klucel (hydroxypropylcellulose) (HPC)
[3] = dose: 400.0 mg/kg/injection, schedule: Q04DX003 (ip), vehicle: Klucel (hydroxypropylcellulose) (HPC)
[4] = dose: 12.5 mg/kg/injection, schedule: Q04DX003 (ip), vehicle: saline with Tween-80
[5] = dose: 25.0 mg/kg/injection, schedule: Q04DX003 (ip), vehicle: saline with Tween-80
[6] = dose: 100.0 mg/kg/injection, schedule: Q04DX003 (ip), vehicle: saline
[7] = dose: 200.0 mg/kg/injection, schedule: Q04DX003 (ip), vehicle: saline
[8] = dose: 400.0 mg/kg/injection, schedule: Q04DX003 (ip), vehicle: saline

Measured: T/C

CCC(CCCN(CC)CCc1ccccc1)OC(=O)c1cc(OC)c(OC)c(OC)c1 (stereo unspecified)
inactive: dose: 4.68 mg/kg/injection, schedule: Q01DX009 (ip), vehicle: saline 106 % of control | dose: 9.37 mg/kg/injection, schedule: Q01DX009 (ip), vehicle: saline 100 % of control | dose: 18.75 mg/kg/injection, schedule: Q01DX009 (ip), vehicle: saline 100 % of control | dose: 18.75 mg/kg/injection, schedule: Q04DX003 (ip), vehicle: saline 118 % of control | dose: 37.5 mg/kg/injection, schedule: Q01DX009 (ip), vehicle: saline 100 % of control | dose: 37.5 mg/kg/injection, schedule: Q04DX003 (ip), vehicle: saline 97 % of control | dose: 75.0 mg/kg/injection, schedule: Q01DX009 (ip), vehicle: saline 95 % of control | dose: 75.0 mg/kg/injection, schedule: Q04DX003 (ip), vehicle: saline 103 % of control

Clc1ccc2c(c1)Cc1cc(Cl)cc(Cl)c1-2
inactive: [1] 98 % of control | [2] 100 % of control | [3] 96 % of control

CC1=Nc2c([nH]cnc2=S)NN1
inactive: dose: 6.25 mg/kg/injection, schedule: Q01DX009 (ip), vehicle: saline with Tween-80 94 % of control | dose: 6.25 mg/kg/injection, schedule: Q04DX003 (ip), vehicle: saline with Tween-80 102 % of control | dose: 12.5 mg/kg/injection, schedule: Q01DX001 (ip), vehicle: saline with Tween-80 87 % of control | dose: 12.5 mg/kg/injection, schedule: Q01DX009 (ip), vehicle: saline with Tween-80 91 % of control | [4] 98 % of control | dose: 25.0 mg/kg/injection, schedule: Q01DX001 (ip), vehicle: saline with Tween-80 102 % of control | [5] 100 % of control

CCO/C=N\c1c(C#N)c(CC#N)nn1-c1ccccc1
inactive: dose: 50.0 mg/kg/injection, schedule: Q01DX009 (ip), vehicle: Klucel (hydroxypropylcellulose) (HPC) 100 % of control | dose: 100.0 mg/kg/injection, schedule: Q01DX009 (ip), vehicle: Klucel (hydroxypropylcellulose) (HPC) 91 % of control | dose: 200.0 mg/kg/injection, schedule: Q01DX009 (ip), vehicle: Klucel (hydroxypropylcellulose) (HPC) 100 % of control

C=CCSc1nc(N)nc2nc[nH]c12
inactive: dose: 50.0 mg/kg/injection, schedule: Q01DX009 (ip), vehicle: saline with Tween-80 122 % of control | dose: 100.0 mg/kg/injection, schedule: Q01DX009 (ip), vehicle: saline with Tween-80 123 % of control | dose: 200.0 mg/kg/injection, schedule: Q01DX009 (ip), vehicle: saline with Tween-80 124 % of control

CC1CCC(C)OCO1 (stereo unspecified)
inactive: dose: 50.0 mg/kg/injection, schedule: Q01DX009 (ip), vehicle: acetone 97 % of control | dose: 100.0 mg/kg/injection, schedule: Q01DX009 (ip), vehicle: acetone 98 % of control | dose: 200.0 mg/kg/injection, schedule: Q01DX009 (ip), vehicle: acetone 88 % of control

CC(Br)c1ccc(S(=O)(=O)F)cc1 (stereo unspecified)
inactive: dose: 100.0 mg/kg/injection, schedule: Q04DX002 (ip), vehicle: saline with Tween-80 104 % of control | dose: 200.0 mg/kg/injection, schedule: Q04DX002 (ip), vehicle: saline with Tween-80 101 % of control

CC(C)[PH+]1c2ccccc2-c2ccccc21.CC(C)[PH+]1c2ccccc2-c2ccccc21.[Cl][Pt][Cl]
inactive: [4] 98 % of control | [5] 98 % of control | dose: 50.0 mg/kg/injection, schedule: Q04DX003 (ip), vehicle: saline with Tween-80 98 % of control

CC(C)(O)/C=C/C(=O)[C@](C)(O)[C@H]1[C@H](O)C[C@@]2(C)[C@@H]3CC=C4[C@@H](C=C(O)C(=O)C4(C)C)[C@]3(C)C(=O)C[C@]12C
inactive: dose: 100.0 micrograms/kg/injection, schedule: Q01DX001 (sc), vehicle: steriod suspending solution 104 % of control | dose: 200.0 micrograms/kg/injection, schedule: Q01DX001 (sc), vehicle: steriod suspending solution 102 % of control | dose: 400.0 micrograms/kg/injection, schedule: Q01DX001 (sc), vehicle: steriod suspending solution 104 % of control | dose: 800.0 micrograms/kg/injection, schedule: Q01DX001 (sc), vehicle: steriod suspending solution 96 % of control

CC1CC2NC(C)CC3NC(C)CC(N1)N32 (stereo unspecified)
inactive: [1] 106 % of control | [2] 97 % of control | [3] 111 % of control

Nc1ccccc1SC1CC(=O)N(c2ccccc2)C1=O (stereo unspecified)
inactive: dose: 100.0 mg/kg/injection, schedule: Q01DX009 (ip), vehicle: other 95 % of control | [6] 94 % of control | dose: 200.0 mg/kg/injection, schedule: Q01DX009 (ip), vehicle: other 92 % of control | [7] 89 % of control | dose: 400.0 mg/kg/injection, schedule: Q01DX009 (ip), vehicle: other 92 % of control | [8] 91 % of control

O=[N+]([O-])c1ccc2[nH]c(=S)[nH]c2c1
inactive: [6] 98 % of control | [7] 103 % of control | [8] 95 % of control

CCCC(N)C(=O)O (stereo unspecified)
inactive: dose: 100.0 mg/kg/injection, schedule: Q01DX001 (ip), vehicle: Klucel (hydroxypropylcellulose) (HPC) 106 % of control | dose: 200.0 mg/kg/injection, schedule: Q01DX001 (ip), vehicle: Klucel (hydroxypropylcellulose) (HPC) 103 % of control | dose: 400.0 mg/kg/injection, schedule: Q01DX001 (ip), vehicle: Klucel (hydroxypropylcellulose) (HPC) 95 % of control
